Experimental data as given in PubChem BioAssay (NCI).
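Where inhibition never reached the appropriate level, the endpoint shown equals the highest concentration tested. Otherwise, values were interpolated linearly from a five-concentration, 48-hour dose response in 96-well plates. GI50: concentration for 50% inhibition of growth. Definition used: TGI = concentration required for complete inhibition of growth.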

Key:
Assay in all cases: DTP human tumour cell line panel, 48 h
OVCAR-3 ovarian = test system: OVCAR-3 ovarian
SNB-19 CNS = test system: SNB-19 CNS
MOLT-4 leukemia = test system: MOLT-4 leukemia
HOP-62 NSCLC = test system: HOP-62 NSCLC
RPMI-8226 leukemia = test system: RPMI-8226 leukemia
ACHN renal = test system: ACHN renal
SW-620 colon = test system: SW-620 colon
OVCAR-4 ovarian = test system: OVCAR-4 ovarian
A498 renal = test system: A498 renal

SMILES | TGI (OVCAR-3 ovarian) | TGI (SNB-19 CNS) | TGI (MOLT-4 leukemia) | TGI (HOP-62 NSCLC) | TGI (RPMI-8226 leukemia) | TGI (ACHN renal) | TGI (SW-620 colon) | TGI (OVCAR-4 ovarian) | TGI (A498 renal) | GI50 (OVCAR-3 ovarian) | GI50 (SNB-19 CNS) | GI50 (MOLT-4 leukemia) | GI50 (A498 renal) | GI50 (OVCAR-4 ovarian) | GI50 (HOP-62 NSCLC) | GI50 (RPMI-8226 leukemia) | GI50 (SW-620 colon)
O=[N+]([O-])c1ccc(-c2ccc(C3=Nn4c(CNc5ccccc5Cl)nnc4SC3)o2)cc1 | > 100 µM | > 100 µM | > 100 µM | > 100 µM | > 100 µM | > 100 µM | > 100 µM |  |  |  |  |  |  |  |  |  | 
CC(=O)OCC(=O)[C@@]1(O)CC[C@H]2[C@@H]3C[C@H](C)C4=CC(=O)C=C[C@]4(C)[C@@]3(F)[C@@H](O)C[C@@]21C | > 100 µM | > 100 µM | > 100 µM | > 100 µM | > 100 µM | > 100 µM | > 100 µM | > 100 µM |  |  |  |  |  |  |  |  | 
O=C1N[C@@H]2CCCC[C@@H]2C12CCCCC2 | > 100 µM | > 100 µM | > 100 µM | > 100 µM | > 100 µM | > 100 µM | > 100 µM | > 100 µM | > 100 µM |  |  |  |  |  |  |  | 
CCOC(=O)c1ccc(N=Nc2ccc(N(CCC#N)CCC#N)cc2C)cc1 | > 100 µM | > 100 µM | > 100 µM | > 100 µM | > 100 µM | > 100 µM | > 100 µM | > 100 µM | > 100 µM |  |  |  |  |  |  |  | 
OC(c1ccccc1Br)(c1ccccc1Br)C(F)(F)F | 51.7 µM |  | 31.6 µM | 52.8 µM |  | 38.3 µM | 36.2 µM | > 100 µM | 51.9 µM |  |  |  |  |  |  |  | 
O=C(CCCC(=O)Nc1ccc(Cl)cc1Cl)CC(=O)c1ccc2ccccc2c1 | > 100 µM | > 100 µM | > 100 µM | > 100 µM |  | > 100 µM | > 100 µM | > 100 µM |  |  |  |  |  |  |  |  | 
c1ccc(C(c2ccccc2)c2ccccn2)cc1 | > 100 µM | > 100 µM |  | > 100 µM | > 100 µM | > 100 µM | > 100 µM | > 100 µM | > 100 µM |  |  |  |  |  |  |  | 
COc1ccc2nc(NC(=O)C(=O)CC(=O)c3ccc([N+](=O)[O-])cc3)sc2c1 | > 100 µM | > 100 µM | > 100 µM | > 100 µM | > 100 µM | > 100 µM | > 100 µM | > 100 µM | > 100 µM |  |  |  |  |  |  |  | 
CCOC(=O)C1=C(NC)OCC1=O | > 100 µM | > 100 µM |  | > 100 µM | > 100 µM | > 100 µM | > 100 µM | > 100 µM | > 100 µM |  |  |  |  |  |  |  | 
O=C1NC(=O)C2C(=O)NC(=O)C1C2Cc1ccco1 (configuration not stated) | > 100 µM | > 100 µM | > 100 µM |  | > 100 µM | > 100 µM | > 100 µM | > 100 µM | > 100 µM |  |  |  |  |  |  |  | 
COC(=O)C1=C(C(=O)OC)C2(c3ccccc3)OC1(c1ccccc1)c1cc3ccccc3cc12 | 2.68 µM | 15.5 µM | 3.64 µM | 27.1 µM | 4.19 µM | 3.07 µM | 3.51 µM | 3.5 µM |  |  |  |  |  |  |  |  | 
NC1=NC(Cn2nc(-c3ccccc3)c3ccccc3c2=O)=NNC(=O)N1 | > 100 µM | > 100 µM | > 100 µM | > 100 µM | > 100 µM | > 100 µM | > 100 µM | > 100 µM | > 100 µM |  |  |  |  |  |  |  | 
CC(=O)Nc1ccc(C2CC(c3ccc([N+](=O)[O-])cc3)=Nc3ccccc3S2=O)cc1 (configuration not stated) | 54.7 µM | > 100 µM | 32.8 µM | 49.8 µM | 20.5 µM | 51.8 µM | 62.4 µM | 39.8 µM |  |  |  |  |  |  |  |  | 
N#Cc1ccc(Sc2nc3ccccc3[nH]2)cc1 |  | > 100 µM | > 100 µM | > 100 µM |  | > 100 µM | > 100 µM | > 100 µM |  |  |  |  |  |  |  |  | 
COc1cc(/C=C/c2csnn2)cc(OC)c1OC | > 100 µM | > 100 µM | > 100 µM | > 100 µM | > 100 µM | > 100 µM | > 100 µM | > 100 µM |  |  |  |  |  |  |  |  | 
CC1NOC(=O)C1N=Nc1ccc(Cl)cc1Cl (configuration not stated) | 36.9 µM | 55.8 µM | 50.7 µM | > 100 µM |  | 55.5 µM | 21.2 µM | 56.5 µM | 99.5 µM |  |  |  |  |  |  |  | 
COc1cc(OC)c(OC)cc1/C=C/c1nc2ccccc2s1 | > 100 µM | > 100 µM | > 100 µM | > 100 µM | > 100 µM | > 100 µM | > 100 µM |  | > 100 µM |  |  |  |  |  |  |  | 
Cc1nc2ccccc2c(=O)n1/N=C(\N=Nc1ccccc1Cl)c1ccccc1Cl |  |  | > 100 µM | > 100 µM | > 100 µM | > 100 µM | > 100 µM |  | > 100 µM |  |  |  |  |  |  |  | 
COc1ccc(Nc2cnc3cc(N)cc(N)c3n2)cc1 | 27.3 µM | > 100 µM | > 100 µM | 51.9 µM | 25.7 µM |  | 52.8 µM | 48.5 µM | 59.1 µM | 11.4 µM | 32.8 µM | 12.5 µM | 16.9 µM | 21.4 µM | 24.4 µM | 4.53 µM | 21.8 µM
CC12OC(=O)C(C#N)C1(C)C1C(=O)CCCC12 (configuration not stated) | > 100 µM | > 100 µM | > 100 µM |  | > 100 µM | > 100 µM | > 100 µM | > 100 µM |  |  |  |  |  |  |  |  | 
Nc1nc(=S)c2c(ncn2CCO)[nH]1 | > 100 µM | > 100 µM |  | > 100 µM | > 100 µM | > 100 µM | > 100 µM | > 100 µM | > 100 µM |  |  |  |  |  |  |  | 
